Calls of active or inactive are those of the source. No cut-off for these calls is given here.
Tests used:
SH-SY5Y [1] = assay: Induction of apoptosis in human SH-SY5Y cells assessed as decrease in ATP level at 30 uM by CellTiter-Glo assay relative to control; format: functional; parameters: scale not given: the % may be the effect or the level left
SH-SY5Y [2] = assay: Cytotoxicity against human SH-SY5Y cells assessed as reduction in cell viability by CCK8 assay; format: functional, cell-based
SH-SY5Y [3] = assay: Induction of apoptosis in human SH-SY5Y cells assessed as increase in caspace-3/7 expression at 1 to 30 uM after 12 hrs by Caspase-Glo assay; format: functional, cell-based; details: dose microM 1-30, time 12.0 hrs
SH-SY5Y [4] = assay: Induction of apoptosis in human SH-SY5Y cells assessed as decrease in ATP level at 1 uM by CellTiter-Glo assay relative to control; format: functional; parameters: scale not given: the % may be the effect or the level left
SH-SY5Y [5] = assay: Induction of apoptosis in human SH-SY5Y cells assessed as nuclear fragmentation at 1 to 30 uM by Hoechst 33342 staining based inverted fluorescent microscopic method; format: functional, cell-based; details: dose microM 1-30
SH-SY5Y [6] = assay: Induction of apoptosis in human SH-SY5Y cells assessed as nuclear condensation at 1 uM by Hoechst 33342 staining based inverted fluorescent microscopic method (reference value: 2.1%); format: functional
SH-SY5Y [7] = assay: Induction of apoptosis in human SH-SY5Y cells assessed as nuclear condensation at 30 uM by Hoechst 33342 staining based inverted fluorescent microscopic method (reference value: 2.1%); format: functional
SH-SY5Y [8] = assay: Induction of apoptosis in human SH-SY5Y cells assessed as nuclear condensation at 1 to 30 uM by Hoechst 33342 staining based inverted fluorescent microscopic method; format: functional, cell-based; details: dose microM 1-30

Compound | Activity (SH-SY5Y [1]) | Activity (SH-SY5Y [2]) | IC50 (SH-SY5Y [2]) | Activity (SH-SY5Y [3]) | Activity (SH-SY5Y [4]) | Activity (SH-SY5Y [5]) | Activity (SH-SY5Y [6]) | Activity (SH-SY5Y [7]) | Activity (SH-SY5Y [8])
COc1ccc(OC)c2c1-c1c3c(cc4c(=O)onc(c14)[C@H]2SCC(N)=O)OCO3 | 51.4% | Dose-dependent effect | 2.7 µM | Active | 57.8% | Active | 36.8% | 70.9% | Active
COc1cc(OC)c2c(c1)-c1c3c(cc4c(=O)onc(c14)[C@H]2SCC(N)=O)OCO3 | – | Dose-dependent effect | 11.2 µM | – | – | – | – | – | –
COc1ccc(OC)c2c1cc1c3c(cc4c(c32)OCO4)C(=O)N1 | – | Dose-dependent effect | 21.2 µM | – | – | – | – | – | –
